Among the data in patent US11266146B2, “Microbiocidal quinoline (thio)carboxamide derivatives” (SYNGENTA PARTICIPATIONS AG, priority 2017, dated 2022) are inhibition of growth, pest or weed control and melting point values, retold here.

In series [1] the test system is Botryotinia fuckeliana (Botrytis cinerea). The experiment in a line: Botryotinia fuckeliana (Botrytis cinerea) / liquid culture (Gray mould). The class given is cell-based. The following applies: growth inhibition photometrically 3-4 days after application, vs untreated control.
For series [2], the system named is Magnaporthe grisea (Pyricularia oryzae). Description: microbe, parasite or virus in culture. Format: cell-based. Particulars: read-out: control of Magnaporthe grisea.
Series [3] deals with Fusarium culmorum. The experiment in a line: whole plant or invertebrate. The class given is in vivo. The following applies: in Triticum aestivum, 144 h, read-out: control of Fusarium culmorum.
Series [4] has as its system Glomerella lagenarium (Colletotrichum lagenarium). Description: Glomerella lagenarium (Colletotrichum lagenarium) / liquid culture (Anthracnose). Particulars: Colletotrichum orbiculare, growth inhibition photometrically 3-4 days after application, vs untreated control. Format: cell-based.
The subject of series [5] is Fusarium culmorum. The experiment in a line: microbe, parasite or virus in culture. Format: cell-based. Particulars: read-out: control of Fusarium culmorum.
Series [6] relates to Monographella nivalis (Microdochium nivale). Description: Monographella nivalis (Microdochium nivale) / liquid culture (foot rot cereals). Format: cell-based. Particulars: growth inhibition photometrically 4-5 days after application, vs untreated control.

For the molecule `CC(C)C[C@@](C)(CN1CCCC(F)(F)C1)NC(=O)c1cnc2c(F)cccc2c1` (single isomer, unassigned) [F2], the inhibition of growth at 20 ppm (in series [1]; in series [2]; in series [4]; in the series with Fusarium culmorum [5]; in series [6]) was not below 80% in each case. Also, the pest or weed control at 200 ppm in the series on Fusarium culmorum [3] was not below 80%.
`CC(C)CC(C)(CN1CCCCO1)NC(=O)c1cnc2c(F)cccc2c1` (centres unmarked) [E6]: the inhibition of growth at 20 ppm (in series [1]; in series [2]; in series [4]; in the series on Fusarium culmorum [5]; in series [6]) was not below 80% throughout. Besides, the pest or weed control at 200 ppm in the series on Fusarium culmorum [3] is not below 80%.
On to `CC(C)CC(C)(Cc1ccc(Cl)s1)NC(=O)c1cnc2c(F)cccc2c1` (centres unmarked) [E14, N-[1-[(5-chloro-2-thienyl)methyl]-1,3-dimethyl-butyl]-8-fluoro-quinoline-3-carboxamide], for which the melting point fell in the range of 126 to 128 °C. In series [1], the inhibition of growth at 20 ppm was not below 80%. Also, the inhibition of growth at 20 ppm in series [2] is not below 80%. In addition, the pest or weed control at 200 ppm in the series with Fusarium culmorum [3] was not below 80%. The same molecule had an inhibition of growth at 20 ppm in series [4] not below 80%. Moreover, the inhibition of growth at 20 ppm with Fusarium culmorum [5] is not below 80%. In series [6], this molecule came in with an inhibition of growth at 20 ppm not below 80%.
Regarding `CC(C)CC(C)(CN1CCCC=N1)NC(=O)c1cnc2c(F)cccc2c1` (centres unmarked) [E24], the inhibition of growth at 20 ppm in series [1], in series [4] and in series [6] was not below 80% each time. The pest or weed control at 200 ppm with Fusarium culmorum [3] is not below 80%.
For `Cc1cccc2cc(C(=O)NC(C)(Cc3cccc(F)n3)CC(F)(F)F)cnc12` (centres unmarked) [E33], the inhibition of growth at 20 ppm (in series [1]; in series [2]; in series [4]; with Fusarium culmorum [5]; in series [6]) was not below 80% throughout. Moreover, the pest or weed control at 200 ppm in the series on Fusarium culmorum [3] is not below 80%.
